From a melting point compilation (Tetko et al.; mined from patent text by program, amines drawn as free bases though some values may be those of a salt)

| Compound | melting point |
| --- | --- |
| O=C(NC[C@H]1O[C@@H]1c1ccccc1)C(F)(F)F (racemic) | 79 °C |
| Cc1oc(-c2ccccc2)nc1COc1ccc(COc2ccc(-c3ccccc3)cc2CC(=O)O)cc1 | 102 to 103 °C |
| O=C(O)c1ccc2[nH]c(C(=O)O)cc2c1 | 314 to 315 °C |
| C[C@@H](n1cnc2ccc(Br)cc2c1=O)[C@](O)(Cn1cncn1)c1ccc(F)cc1F | 182 to 183 °C |
| Nc1sccc1C(=O)c1ccc(F)cc1 | 178 °C |
| COc1ccc2c(c1)C1(CCNC1)CC2O (centres undefined) | 135 to 138 °C |
| CC(=O)c1ccc(SCCCc2ccccc2)cc1 | 76 to 78 °C |
| Oc1cc(-c2ncc(C(F)(F)F)cc2Cl)ccc1Cl | 105 to 107 °C |
| C=Cc1ccc(S(=O)(=O)Nc2ncnc(OCCO)c2Cc2c(OC)cccc2OC)cc1 | 138 to 139 °C |
| CCOc1c(C(F)(F)F)cc([N+](=O)[O-])c(Nc2ncc(C(F)(F)F)cc2Cl)c1[N+](=O)[O-] | 106 to 108 °C |
| CCCOc1ccc(S(=O)(=O)Cl)cc1C(=O)O | 121 to 124 °C |
| COc1cc(C(C)C)ccc1C1(Cl)C(=O)c2cccc([N+](=O)[O-])c2C1=O (centres undefined) | 81 to 84 °C |
| O=c1[nH]c2ncc(-c3ccc(-c4nn[nH]n4)cc3)nc2n1CC1CCCCC1 | > 400 °C |
| Cc1ccc(S(=O)(=O)NC(=O)C2C(=O)CC(C)(C)CC2=O)cc1 | 94 to 108 °C |
| Cc1ccccc1-n1c(CF)nc2ccc([N+](=O)[O-])cc2c1=O | 155 to 158 °C |
| CC(C)(C)c1nc2cc(N3CCN(S(C)(=O)=O)CC3)c(N)cc2s1 | 153 to 155 °C |
| COc1ccc(NN=C(Sc2cccc(Cl)c2)C(C)=O)cc1 | 132 to 134 °C |
| CCCSc1sc(C(=O)OCC)c2c1C(=O)C(NC(=O)CC)CC2 (centres undefined) | 191 to 192 °C |
| NC(N)=Nc1nc(-c2nc(N)sc2C=NS(N)(=O)=O)cs1 | > 300 °C |
| Nc1cc(F)ccc1Nc1ccccc1 | 83 to 84 °C |
| COc1cc(Nc2c(C#N)cnc3cc4cc(OCCN5CCN(C)CC5)c(OC)cc4cc23)c(Cl)cc1F | 197 to 205 °C |
| Nc1cccc(NC(=S)Nc2ccc(Cl)cc2)c1 | 132 to 134 °C |
| CCOC(=O)c1cc(=O)c2c(OCC(O)COc3ccc(C#N)c(OC)c3)cccc2o1 (centres undefined) | 143 to 145 °C |

| Compound | melting point |
| --- | --- |
| CC(C)(C)OC(=O)NCc1cc(-c2cccnc2)no1 | 67 to 69 °C |
| CCCC(C)(O)C(=O)Nc1ccnc(Br)c1 (centres undefined) | 102 °C |
| C#CCOC(=O)Oc1ccc(C(=O)c2ccc(OC(=O)OCC#C)cc2)cc1 | 104 to 106 °C |
| CC1CC(C(=O)O)CCN1C(=O)OC(C)(C)C (centres undefined) | 109 to 112 °C |
| CCOC(=O)c1cnc2nc(C(=O)O)c(OCC)cc2c1O | 270 to 272 °C |
| COc1c(Cl)ccc(-c2cc(N)c(Cl)c(C(=O)NOCC(C)C)n2)c1F | 145 to 148 °C |
| O=[N+]([O-])c1ccc2c(c1)C(c1ccccc1F)=NCc1nc(CO)cn1-2 | 230 to 231 °C |
| CCCCCCCCCCCC(=O)OC1CC(c2ccccc2)NC(c2ccccc2)C1C (centres undefined) | 56 to 59 °C |
| Nc1nonc1-c1nc2ccccc2n1COc1ccccc1 | 171 to 173 °C |
| Cc1cccc(Cn2nnc(C(N)=O)c2N)c1 | 200 to 202 °C |
| COC(=O)c1cnc(C(=O)O)nc1 | 152 to 154 °C |
| O=C(Nc1ccc2[nH]c(CNCC3CCOCC3)cc2c1)c1ccc(OCC2CC2)cc1 | 160 °C |
| Cc1nc2cc(Br)ccc2s1 | 84 to 85 °C |
| Cc1ccc2c(c1)c(=O)oc(=O)n2Cc1ccc(F)cc1 | 153 °C |
| Fc1cccc(Cl)c1COc1cccnc1NC(=S)Nc1ccc(Cl)cc1 | 162 to 164 °C |
| COc1cc(OC)c2c(C)c(CCOS(C)(=O)=O)c(=O)oc2c1 | 170 to 172 °C |
| CCCCCCCN(CCO)c1ccc2c(c1)Oc1cc(=C(C#N)C#N)c3ccccc3c1=N2 | 155 to 157 °C |
| CCCN1N=C2C(=Cc3cccc(C(F)(F)F)c3)CSCC2C1c1cccc(C(F)(F)F)c1 (centres undefined) | 90 to 93.5 °C |
| CCCc1nc(OC)c(NC(=O)N2CCN(c3cc(C)cc(C)c3)CC2)cc1C | 138 to 139 °C |
| CCOC(=O)c1ccc(-c2ncc(-c3ccc(Cl)cc3)s2)cc1 | 167 to 168 °C |
| CNC(=S)Nc1cc(F)ccc1N1CCOCC1 | 145 to 148 °C |
| Cn1c(N2CCOC(c3noc(-c4ccccc4)n3)C2)nc(-c2ccncn2)cc1=O (centres undefined) | 208 °C |
| CC(C)(C)c1ccc(C(=O)C(Cl)(Cl)Cl)cc1 | 59 to 62 °C |

| Compound | melting point |
| --- | --- |
| N#Cc1c(NCc2ccccc2)n[nH]c1N | 150 to 152 °C |
| CC1(C)CCCC(=Cc2ccc(Cl)cc2)C1=O | 92 °C |
| CCOC(=O)c1ccc(CNC(=O)CCl)cc1O | 120 to 121 °C |
| CCOC(=O)Cc1nnc(-c2ccccn2)[nH]c1=O | 136 to 137 °C |
| CCCCCCCSc1nn2c(=O)c(OC)cnc2s1 | 68 to 71 °C |
| CN1CCCC1=Cc1ccc([N+](=O)[O-])cc1[N+](=O)[O-] | 188 to 190 °C |
| CC(C)CCc1cc2nnc(-c3ccccc3F)n2nc1OCc1ncnn1C | 103 to 105 °C |
| Cn1ccnc1Sc1ccc([N+](=O)[O-])cc1F | 97 to 99 °C |
| CCN1CC=C(c2c[nH]c3ccc([N+](=O)[O-])cc23)CC1 | 188 to 190 °C |
| COC(=O)c1cccc(C(=O)OC)c1S(=O)(=O)NC(=O)Nc1nc(OC)cc(OC)n1 | 164 to 167 °C |
| Cc1cc(Nc2ncnc3ccn(CCNC(=O)CS(C)(=O)=O)c23)ccc1Oc1cccc(OC(F)(F)F)c1 | 106 to 108 °C |
| CN(O)C(=O)Nc1ccc(Cl)c(C(F)(F)F)c1 | 114 to 115 °C |
| CCCCCCCCCCNC(=O)N(C)O | 74 to 76 °C |
| CCN(CCCP(=O)(O)O)S(=O)(=O)C(F)(F)C(F)(F)C(F)(F)C(F)(F)F | 138 to 140 °C |
| COC(=O)c1ccc(/C=C/c2c(OC)cc3c(c2OC)C(C)(C)CCC3(C)C)cc1 | 140 to 142 °C |
| Cc1nc2ccccn2c(=O)c1CCN1CCC(Nc2nc3cncnc3n2Cc2cnccn2)CC1 | 180 °C |
| CCOCc1nc2c(N)nc3c(c2n1CC1(OCCS(C)(=O)=O)CCC1)CCCC3 | 186 to 188 °C |
| O=c1oc(-c2cccc(-c3ccccc3)c2)cc(O)c1Sc1ccc2ccccc2c1 | 183 to 185 °C |
| Cc1cc(-c2nc3ccc(CCN4CCCC4)cc3c(=O)[nH]2)cc(C)n1 | 212 to 213 °C |
| COC(=O)c1ccc(C=O)c2ncccc12 | 128 °C |
| COCCOc1ccccc1S(=O)(=O)NC(=O)Nc1nc(C)cc(OC)n1 | 160 to 162 °C |

Continued, values first:

| melting point | Compound |
| --- | --- |
| 131 to 133 °C | CSc1ccc2ncc([N+](=O)[O-])c(-c3ccccc3)c2c1 |
| 154 to 155 °C | COc1cccc(CC(=O)O)c1OCCn1cc(C(=O)NCc2ccc(Cl)cc2Cl)c(OC(C)C)n1 |
| 203 to 204 °C | COc1cc(C(=N)NO)ccc1-c1cc(-c2ccc(C(=N)NO)cc2OC)on1 |
| 243 to 245 °C | Cn1ncc(C(=O)N2CCC2)c1C(=O)Nc1ccn2nc(-c3ccccc3)nc2c1 |
| 345 to 348 °C | Cc1[nH]c(-c2ccccc2)c2nc(-c3ccccc3)[nH]c(=O)c12 |
| 201 to 202 °C | O=C(Nc1cccc(C(F)(F)F)c1)c1cccc2cc(O)ccc12 |
| 61 to 67 °C | CCCN(Cc1ccc(-c2ccccc2C(=N)NO)cc1)c1nc2ccccc2cc1C(=O)OCC |
| 95 to 97 °C | CCN1c2ncc(COc3cccc(OC)c3)cc2C(=O)N(C)c2ccc(Cl)nc21 |
| 214 to 216 °C | COc1ccc(CN2C(=O)C3(COc4cc5onc(N)c5cc43)c3ccccc32)cc1 (centres undefined) |
| 189 to 191 °C | CN(c1cccc2cc(C3=NCC4(CCOCC4)S3)[nH]c12)S(=O)(=O)c1cccs1 |
| > 300 °C | O=c1c2ccc(Cl)cc2[nH]c2c(O)nn(C3CCCc4sccc43)c(=O)c12 (racemic) |
| > 300 °C | Cn1c2ccc([N+](=O)[O-])cc2c2c3ccccc3c(=O)[nH]c21 |
| 216 to 217 °C | CCOc1cc(O)cc2c1C(=O)N(COC(=O)c1c(Cl)cccc1Cl)S2(=O)=O |
| 150 to 165 °C | CC1=NC2CN=C(c3ccccc3F)c3cc(Cl)ccc3C2C(=O)N1 (centres undefined) |
| 123 to 125 °C | O=C(O)c1ccc(NCCc2ccccc2)cc1 |
| 163 to 164 °C | CC[C@@H](O)C1(c2onc(-c3ccc(O)cc3)c2-c2ccccc2)CC1 |

| melting point | Compound |
| --- | --- |
| 255 °C | CN1C(C(=O)NC2N=C3CCSC=C3S2)=C(O)c2ccc3ccccc3c2S1(=O)=O (centres undefined) |
| 246 °C | Oc1c(Cl)cc(Cn2c(S)nc3ccccc32)cc1Cl |
| 98 to 101 °C | O=C(OCc1ccccc1)N1CCc2c([nH]c3ccccc23)C1c1ccc2c(c1)OCO2 (centres undefined) |
| 109 to 111 °C | COc1ccc(C(=O)NCCc2cccs2)cc1 |
| 93 to 95 °C | CC=C1c2ccccc2CC(=O)c2ccccc21 |
| 180 to 181 °C | CSc1nccc(Oc2ccc(NC(=O)c3cc(F)cc(N4CCCC4)c3)c3ccccc23)n1 |
| 140 °C | O=C(O)[C@H]1Cc2ccccc2CN1S(=O)(=O)c1ccc([N+](=O)[O-])cc1 |
| 166 to 168 °C | COc1nc(OC)nc(OC(=O)c2cccc3cc(O)ccc23)n1 |
| 188 to 189 °C | CN1CC(=O)N2c3ccccc3Cn3c(cc4ccccc43)C2C1=O (centres undefined) |
| 126 to 127 °C | CCOC(=O)CCc1cnc(-c2cc3cccc(N(C)S(=O)(=O)c4cccs4)c3[nH]2)s1 |
| 149 °C | CN(c1cccc2cc(C3=NCC(CC(=O)N4CCS(=O)CC4)S3)[nH]c12)S(=O)(=O)c1cccs1 (centres undefined) |
| 197 to 199 °C | Nc1ncccc1-c1nc2cc(-c3cccnc3)cnc2n1-c1ccc(CNS(=O)(=O)C2CC2)cc1 |
| 145 to 147 °C | Cc1c(-c2cccnc2)n(CCCC=CC(=O)O)c2ccccc12 |
| 172 to 178 °C | Cc1ccccc1C(Oc1cc(OCc2ccc3ncoc3c2)ccc1C#N)C(=O)O (racemic) |
| 250 to 252 °C | O=C(Nc1ccccc1)OCC1CSC2=C(O1)c1ccccc1C(=O)C2=O (centres undefined) |
| 68.9 to 69.3 °C | CCOc1ccc(-c2nc(CCC(=O)c3ccccc3OC)cs2)cc1OCC |
